Experiment [1] concerns S. pyogenes. Briefly: in vitro antibacterial activity. The class given is cell-based.
For experiment [2], the system named is representative Gram-positive and Gram-negative pathogens. Briefly: in vitro activity against representative pathogens. The settings on record: pathogens associated with respiratory tract and skin and skin structure infections, including isolates resistant to existing classes of antimicrobials. The class given is cell-based.
Experiment [3] relates to S. pneumoniae. The experiment can be described thus: in vitro antibacterial activity. It counts as cell-based. The following applies: primary respiratory pathogen.
The subject of experiment [4] is N. gonorrhoeae. The experiment can be described thus: in vitro activity against Neisserria sp. The class given is cell-based. The following applies: both ciprofloxacin susceptible and resistant.
Experiment [5] relates to anaerobic organisms. The experiment can be described thus: in vitro activity against anaerobic organisms. It counts as cell-based.
Experiment [6] concerns H. influenzae. Briefly: in vitro antibacterial activity. The class given is cell-based. The settings on record: primary respiratory pathogen.
The subject of experiment [7] is M. pneumoniae. The experiment can be described thus: in vitro activity against atypical pathogens. The class given is cell-based. The following applies: atypical pathogen.
Experiment [8] has as its system C. pneumoniae. Briefly: in vitro activity against atypical pathogens. The settings on record: atypical pathogen. It counts as cell-based.
The subject of experiment [9] is M. catarrhalis. The experiment can be described thus: in vitro antibacterial activity. The class given is cell-based. The settings on record: primary respiratory pathogen.
In experiment [10] the test system is S. aureus. The experiment can be described thus: in vitro antibacterial activity. The class given is cell-based.
Experiment [11] deals with representative Gram-positive and Gram-negative pathogens. The experiment can be described thus: in vivo activity against representative pathogens. The following applies: pathogens associated with respiratory tract and skin and skin structure infections, including isolates resistant to existing classes of antimicrobials.
Experiment [12] relates to L. pneumophila. It counts as cell-based. The settings on record: atypical pathogen.
Experiment [13] deals with F. tularensis. It counts as cell-based. The settings on record: biothreat organism.
Experiment [14] deals with isolates carrying resistance determinants to other antibiotics. Briefly: in vitro activity against resistant isolates of respiratory pathogens. It counts as cell-based. The settings on record: penicillin-, macrolide-, methicillin- or levofloxacin-resistant phenotypes.
Experiment [15] has as its system N. meningitidis. The experiment can be described thus: in vitro activity against Neisserria sp. The class given is cell-based.
[16] abbreviates: primary respiratory pathogen, primary pathogen of skin and skin structure infections.

With `C=C[C@]1(C)C[C@@H](OC(=O)NC(=O)O[C@H]2C[C@H](N)C2)[C@]2(C)[C@H](C)CC[C@]3(CCC(=O)[C@H]32)[C@@H](C)[C@@H]1O` [Compound I, trans-3-aminocyclobutyl (1S,2R,3S,4S,6R,7R,8R,14R)-4-ethenyl-3-hydroxy-2,4,7,14-tetramethyl-9-oxotricyclo[5.4.3.01,8]tetradec-6-yl imidodicarbonate], the “activity against isolates carrying resistance determinants to other antibiotics” value in experiment [1] (S. pyogenes isolates, penicillin-, macrolide-, methicillin- or levofloxacin-resistant phenotypes) is given as “retained”; in experiment [10] (S. aureus isolates, penicillin-, macrolide-, methicillin- or levofloxacin-resistant phenotypes), “retained”; in experiment [14], “activity”. In addition, the “in vitro antibacterial activity” value in [1] (setting [16]), in experiment [3], in [6], in experiment [9] and in experiment [10] (setting [16]) was “good in vitro antibacterial activity” throughout. The in vitro activity result is on record as “good” in experiment [2]; “good in vitro activity” in experiment [4]; “good in vitro activity” in experiment [5]; “good in vitro activity” in experiment [7]; “good in vitro activity” in [8]; “good in vitro activity” in experiment [12]. The in vitro activity entry in [13] and in experiment [15] was “good in vitro activity” throughout. In addition, in [11], the in vivo activity result was “good”.
